Structures are written as SMILES.

27 molecules from US7928098B2, “Therapeutic and/or preventive agents for a sleep disorder” (Kyowa Hakko Kirin Co., Ltd., priority 2005, dated 2011) can be followed below.

Consider `O=C(Nc1nc(-c2ccco2)c(C(=O)c2ccccn2)s1)c1ccc(Br)o1` [Compound 143, 5-Bromo-N-[4-(2-furyl)-5-(pyridin-2-ylcarbonyl)thiazol-2-yl]furan-2-carboxamide], for which the melting point was 211 to 212 °C. In the case of `O=C(Nc1nc(-c2ccco2)c(C(=O)c2ccccn2)s1)c1ccc([N+](=O)[O-])o1` [Compound 144, N-[4-(2-Furyl)-5-(pyridin-2-ylcarbonyl)thiazol-2-yl]-5-nitrofuran-2-carboxamide] it was 278 to 283 °C (dec.); in that of `Cc1ccoc1C(=O)Nc1nc(-c2ccco2)c(C(=O)c2ccccn2)s1` [Compound 145, N-[4-(2-Furyl)-5-(pyridin-2-ylcarbonyl)thiazol-2-yl]-3-methylfuran-2-carboxamide], 174 to 176 °C.

`O=C(Nc1nc(-c2ccco2)c(C(=O)c2ccccn2)s1)c1ccoc1` [Compound 146, N-[4-(2-Furyl)-5-(pyridin-2-ylcarbonyl)thiazol-2-yl]furan-3-carboxamide] registered a melting point of 187 to 189 °C. In the case of `Cc1occc1C(=O)Nc1nc(-c2ccco2)c(C(=O)c2ccccn2)s1` [Compound 147, N-[4-(2-Furyl)-5-(pyridin-2-ylcarbonyl)thiazol-2-yl]-2-methylfuran-3-carboxamide] it was 183 to 186 °C; in that of `Cc1cc(C(=O)Nc2nc(-c3ccco3)c(C(=O)c3ccccn3)s2)c(C)o1` [Compound 148, N-[4-(2-Furyl)-5-(pyridin-2-ylcarbonyl)thiazol-2-yl]-2,5-dimethylfuran-3-carboxamide], 195 to 198 °C; in that of `O=C(Nc1nc(-c2ccco2)c(C(=O)c2ccccn2)s1)c1cccs1` [Compound 149, N-[4-(2-Furyl)-5-(pyridin-2-ylcarbonyl)thiazol-2-yl]-thiophene-2-carboxamide], 197 to 199 °C. With `O=C(Nc1nc(-c2ccco2)c(C(=O)c2ccccn2)s1)c1ccno1` [Compound 150, N-[4-(2-Furyl)-5-(pyridin-2-ylcarbonyl)thiazol-2-yl]isoxazole-5-carboxamide], the melting point was 223 to 230 °C. In the case of `Cc1cc(C(=O)Nc2nc(-c3ccco3)c(C(=O)c3ccccn3)s2)no1` [Compound 151, N-[4-(2-Furyl)-5-(pyridin-2-ylcarbonyl)thiazol-2-yl]-5-methylisoxazole-3-carboxamide] it was 209 to 213 °C; in that of `O=C(Nc1nc(-c2ccco2)c(C(=O)c2ccccn2)s1)c1ccc2snnc2c1` [Compound 152, N-[4-(2-Furyl)-5-(pyridin-2-ylcarbonyl)thiazol-2-yl]-1,2,3-benzothiadiazole-5-carboxamide], 213 to 218 °C.

As to `Cn1nnc2ccc(C(=O)Nc3nc(-c4ccco4)c(C(=O)c4ccccn4)s3)cc21` [Compound 153, N-[4-(2-Furyl)-5-(pyridin-2-ylcarbonyl)thiazol-2-yl]-1-methyl-1H-benzotriazole-6-carboxamide], the melting point lay in the range of 230 to 231 °C.

`CC(O)c1cc2cc(C(=O)Nc3nc(-c4ccco4)c(C(=O)c4ccccn4)s3)ccc2o1` (stereo not drawn) [Compound 154, N-[4-(2-Furyl)-5-(pyridin-2-ylcarbonyl)thiazol-2-yl]-2-(1-hydroxyethyl)-1-benzofuran-5-carboxamide] gave a melting point of 246 to 249 °C. Under `CC(C)(O)c1cc2cc(C(=O)Nc3nc(-c4ccco4)c(C(=O)c4ccccn4)s3)ccc2o1` [Compound 155, N-[4-(2-Furyl)-5-(pyridin-2-ylcarbonyl)thiazol-2-yl]-2-(1-hydroxy-1-methylethyl)-1-benzofuran-5-carboxamide] stands 230 to 231 °C; under `O=C(Nc1nc(-c2ccco2)c(C(=O)c2ccccn2)s1)c1cnc2occc2c1` [Compound 156, N-[4-(2-Furyl)-5-(pyridin-2-ylcarbonyl)thiazol-2-yl]-furo[2,3-b]pyridine-5-carboxamide], 234 to 235 °C; under `CCOC(=O)Nc1nc(-c2ccco2)c(C(=O)c2ccccn2)s1` [Compound 158, Ethyl N-[4-(2-furyl)-5-(pyridin-2-ylcarbonyl)thiazol-2-yl]carbamate], 158 to 159 °C. In turn, `O=C(Nc1nc(-c2ccco2)c(C(=O)c2ccccn2)s1)OC1CCC1` [Compound 159, Cyclobutyl N-[4-(2-furyl)-5-(pyridin-2-ylcarbonyl)thiazol-2-yl]carbamate] showed a melting point of 152 to 153 °C. Under `O=C(Nc1nc(-c2ccco2)c(C(=O)c2ccccn2)s1)OC1CCCC1` [Compound 160, Cyclopentyl N-[4-(2-furyl)-5-(pyridin-2-ylcarbonyl)thiazol-2-yl]carbamate] stands 162 to 163 °C.

With `O=C(Nc1nc(-c2ccco2)c(C(=O)c2ccccn2)s1)OC1CCOCC1` [Compound 161, 4-Tetrahydropyranyl N-[4-(2-furyl)-5-(pyridin-2-ylcarbonyl)thiazol-2-yl]carbamate], the melting point lay within 144 to 145 °C. Under `CN1CCC(OC(=O)Nc2nc(-c3ccco3)c(C(=O)c3ccccn3)s2)CC1` [Compound 162, 1-Methylpiperidine-4-yl N-[4-(2-furyl)-5-(pyridin-2-ylcarbonyl)thiazol-2-yl]carbamate] stands 222 to 225 °C. Under `O=C(Nc1nc(-c2ccco2)c(C(=O)c2ccccn2)s1)OC(CF)CF` [Compound 163, 2-Fluoro-1-(fluoromethyl)ethyl N-[4-(2-furyl)-5-(pyridin-2-ylcarbonyl)thiazol-2-yl]carbamate] stands 158 to 159 °C; under `O=C(c1ccccn1)c1sc(NC(=O)N2CCOCC2)nc1-c1ccco1` [Compound 164, N-[4-(2-Furyl)-5-(pyridin-2-ylcarbonyl)thiazol-2-yl]morpholine-4-carboxamide], 144 to 145 °C. Under `O=C(c1ccccn1)c1sc(NC(=O)N2CCCCC2)nc1-c1ccco1` [Compound 165, N-[4-(2-Furyl)-5-(pyridin-2-ylcarbonyl)thiazol-2-yl]piperidine-1-carboxamide] stands 182 to 185 °C. With `CC(C)NC(=O)Nc1nc(-c2ccco2)c(C(=O)c2ccccn2)s1` [Compound 166, N-[4-(2-Furyl)-5-(pyridin-2-ylcarbonyl)thiazol-2-yl]-N′-isopropylurea], the melting point was in the range of 182 to 186 °C.

In the case of `CC(C)(C)NC(=O)Nc1nc(-c2ccco2)c(C(=O)c2ccccn2)s1` [Compound 167, N-tert-Butyl-N′-[4-(2-furyl)-5-(pyridin-2-ylcarbonyl)thiazol-2-yl]urea], the melting point fell in the range of 123 to 124 °C. Turning to `COCCNC(=O)Nc1nc(-c2ccco2)c(C(=O)c2ccccn2)s1` [Compound 168, N-[4-(2-Furyl)-5-(pyridin-2-ylcarbonyl)thiazol-2-yl]-N′-(2-methoxyethyl)urea], the melting point was 150 to 151 °C.

Consider `COCCCNC(=O)Nc1nc(-c2ccco2)c(C(=O)c2ccccn2)s1` [Compound 169, N-[4-(2-Furyl)-5-(pyridin-2-ylcarbonyl)thiazol-2-yl]-N′-(3-methoxypropyl)urea], for which the melting point fell in the range of 169 to 170 °C. In the case of `O=C(CCl)Nc1nc(-c2ccco2)c(C(=O)c2ccccn2)s1` [Compound 170, 2-Chloro-N-[4-(2-furyl)-5-(pyridin-2-ylcarbonyl)thiazol-2-yl]acetamide] it was 184 to 185 °C.
